Measurements published in patent US20260115280A1, “VACCINES” (ADJUVANCE TECHNOLOGIES, INC., priority 2021, published 2026).

What was measured:
CD4+ T cells [1] = test: D42 CD4 T-cell ICS (Example 5); type: in vivo; conditions: CD-1 mice; AS01; both PHAD doses, high dose TLR4a-1, high dose CRX-527 (each with gE + 40 mcg TQL-1055)
From the text: (§1) The tolerability and immunogenicity of formulations containing (TQL-1055 free acid HP-β-CD (2-hydroxypropyl beta-cyclodextrin) and TLR4 agonist candidates were studied. CD-1 mice were immunized as shown in the table below. PHAD liposomes were obtained from Avanti. EcML was obtained from EuBiologics. CRX-527 was obtained from InvivoGen. TLR4a-1 is an undisclosed TLR4 compound. AS01 is a combination of 5 mcg QS-21 and 5 mcg MPL used in SHINGRIX.
(§2) Mice were immunized via I.M. on Day 0 and Day 14. Groups were bled at Day-1, Day 13 (post Dose 1), and Day 28 (post Dose 2) for serum analysis for anti-gE specific antibody response and anti-gE specific T cell response. Weight measurements were also obtained on Days 0, 1, 2, 14, 15, 16, and 17.
Overall, levels of activation much lower than D26 T cell data.

gE [2] = test: Anti-gE ELISA, D28 total IgG endpoint titers (Example 5); type: in vivo, Varicella zoster virus; conditions: CD-1 mice; high vs low TLR4 agonist dose with 5 mcg gE + 40 mcg TQL-1055 FA HPβCD
From the text: as §1, §2

CD4+ T cells [3] = test: D26 CD4 T-cell ICS (Example 5); type: in vivo; conditions: CD-1 mice, high dose PHAD, high dose CRX-527, low dose TLR4a-1 (each with gE + 40 mcg TQL-1055)
From the text: as §1
(§3) Mice were immunized via I.M. on Day 0 and Day 14. […] Weight measurements were also obtained on Days 0, 1, 2, 14, 15, 16, and 17.
The increases were driven largely by higher single cytokine positive T cells for IFN-γ or IL-2.

gE [4] = test: Anti-gE ELISA, D28 IgG2a subclass endpoint titers (Example 5); type: in vivo, Varicella zoster virus; conditions: CD-1 mice; with 5 mcg gE + 40 mcg TQL-1055; EcML statement at the low TLR4a dose
From the text: as §1, §2
Similar responses were observed from all 4 TLR4 agonists with CRX-527 having the lowest IgG2a titers. There was a more pronounced dose effect of TLR4a on IgG2a than total IgG. PHAD had the largest difference between low and high dose at 8 times higher. At the low TLR4a dose, EcML had the highest IgG2a.

CD8 T cells = test: D26 CD8 T-cell ICS (Example 5); type: in vivo; conditions: CD-1 mice; high dose PHAD, both doses CRX-527, high dose TLR4a-1 (each with gE + 40 mcg TQL-1055); AS01
From the text: as §1, §3

[5] = Weight loss: mean percent initial weight change after immunization (Example 6); type: in vivo, C57BL/6J mice; conditions: mice; TQL 1055 alone with gE
Procedure: as §1
The study was conducted in two parts with staggered start dates. Part A involved testing TQL1055 in combination with PHAD and EcML. Part B involved testing TQL1055 in combination with CRX-527 and TR4a-1.
Mice were immunized via I.M. on Day 0 and Day 14. Groups were bled at Day-1, Day 13 (post Dose 1), and Day 28 (post Dose 2) for serum analysis for anti-gE specific antibody response. Weight measurements were also obtained on Days 0, 1, 2, 14, 15, 16, and 17.
Post dose 1 mean percent (%) initial weight change for each group is depicted in FIGS. 40-45. Post dose 1 weight loss heatmaps are depicted in FIG. 46. Post dose 2 mean percent (%) initial weight change for each group is depicted in FIGS. 47-51. […] Weight loss appeared to be driven mostly by TLR4 dose.

CD4+ T cells [6] = test: T-cell intracellular cytokine staining (ICS) assay, CD4+ T-cell (Example 4); type: in vivo; conditions: mice
Procedure: (§4) The impact of TQL-1055 choline salt (in situ salt) at various dosages, a TLR9 or TLR4 agonist, and VZV gE (expressed by CHO cells), as compared to AS-01B (5 mcg MPL+5 mcg QS-21) was tested. In Experiment #1, mice were immunized with PBS alone, gE (5 mcg)+TLR9 ligand (50 mcg)+TQL-1055 (four groups: 5 mcg, 15 mcg, 25 mcg, 50 mcg), and AS-01B. In Experiment #2, mice were immunized with PBS alone, gE (5 mcg)+TLR4 ligand (5 mcg)+TQL-1055 (four groups: 5 mcg, 15 mcg, 25 mcg, 50 mcg), and AS-01B.
(§5) Mice were immunized at Day 0 and Day 21. Groups were bled at Day 31 […] for serum analysis.
FIG. 22 is a graph depicting the results of a T-cell intracellular cytokine staining (ICS) assay (CD4+ T-cell) showing the percentage of CD4+ T cells expressing one or more cytokines in response to stimulation with VZV gE for Experiment 1. FIG. 23 is a graph depicting the results of T-cell intracellular cytokine staining (ICS) assays (CD4+ T-cell) showing the percentage of CD4+ T cells expressing one or more cytokines in response to stimulation with VZV gE for Experiment 2.

spleen lymphocytes = test: FluoroSpot (T-cell) assay, spot forming cells per million spleen lymphocytes (Example 4); type: in vivo; conditions: mice
Procedure: as §4, §5
FIG. 24 is a graph depicting the results of a FluroSpot (T-cell) assay showing spot forming cells per million spleen lymphocytes for Experiment 1. FIG. 25 is a graph depicting the results of a FluroSpot (T-cell) assay showing spot forming cells per million spleen lymphocytes for Experiment 2.

VZV gE = test: ELISA antibody titers (Example 4); type: in vivo, Varicella zoster virus; conditions: mice
Procedure: as §4, §5
FIG. 26 is a graph depicting the results of an enzyme-linked immunosorbent assay (ELISA) showing antibody titers for […]. FIG. 27 is a graph depicting the results of an enzyme-linked immunosorbent assay (ELISA) showing antibody titers for Experiment 1.

[7] = gE 5 mcg + TLR9 ligand 50 mcg or TLR4 ligand 5 mcg + TQL-1055 5, 15, 25, 50 mcg
[8] = TQL-1055 5 mcg combined with TLR4 ligand vs AS-01B

SMILES: CCCCCCCCCCC[C@H](CC(=O)N[C@H]1[C@H](OC[C@H](NC(=O)C[C@@H](CCCCCCCCCCC)OC(=O)CCCCCCCCC)C(=O)O)O[C@H](CO)[C@@H](OP(=O)(O)O)[C@@H]1OC(=O)C[C@@H](CCCCCCCCCCC)OC(=O)CCCCCCCCC)OC(=O)CCCCCCCCC [CRX-527]
- D42 total cytokine+ CD4+ T cells compared to unadjuvanted (CD4+ T cells [1]): significantly increased
- effect of increasing the TLR4 agonist dose on D28 total IgG endpoint titers (gE [2]): no effect
- D26 total cytokine+ CD4+ T cells compared to unadjuvanted (CD4+ T cells [3]; AS01): significantly increased
- D26 total polyfunctional CD4+ T cells compared to unadjuvanted control (CD4+ T cells [3]): significantly higher
- rank of IgG2a titers among the 4 TLR4 agonists (gE [4]): lowest
- D26 activated CD8 T cells compared to unadjuvanted control group (CD8 T cells): significantly higher

SMILES: CC1O[C@@H](OC2C(O)[C@@H](NC(=O)CCCCCCCCCCC(=O)O)C(CO)O[C@H]2OC(=O)[C@]23CCC(C)(C)CC2C2=CCC4C5(C)CC[C@H](O)C(C)(C=O)C5CCC4(C)C2(C)CC3O)C(O)C(O)[C@H]1O[C@@H]1OC[C@@H](O)C(O)C1O (stereo partly shown) [TQL-1055]
- weight loss compared to unadjuvanted [5]: no significant weight loss
- T-cell response by ICS compared to AS-01B (CD4+ T cells [6]; TQL-1055 5 mcg combined with TLR4 ligand vs AS-01B (5 mcg MPL + 5 mcg QS-21)): without any significant difference
- T-cell response by ICS (CD4+ T cells expressing one or more cytokines on stimulation with VZV gE): dose dependence (CD4+ T cells [6]; [7]): dose-dependent
- T-cell response by FluoroSpot compared to AS-01B (spleen lymphocytes; [8]): without any significant difference
- T-cell response by FluoroSpot: dose dependence (spleen lymphocytes; [7]): dose-dependent
- antibody response by ELISA compared to AS-01B (VZV gE; [8]): without any significant difference
- antibody response by ELISA: dose dependence (VZV gE; [7]): dose-dependent
